Test system: glucocorticoid receptor
Assay: One or more of the above assays (GR binding and GR cell assays; not specified which)
Type: cell-based
Settings: in one or more of the above assays
Method: This assay uses fluorescence polarization (FP) to quantitate the ability of test compounds to compete with tetramethyl rhodamine (TAMRA)-labeled dexamethasone for binding to a human glucocorticoid receptor (GR) complex prepared from an insect expression system. The assay buffer was: 10 mM TES, 50 mM KCl, 20 mM Na2MoO4.2H2O, 1.5 mM EDTA, 0.04% w/v CHAPS, 10% v/v glycerol, 1 mM dithiothreitol, pH 7.4. Test compounds were dissolved to 1 mM in neat DMSO and then further diluted to 10×assay concentration in assay buffer supplemented with 10% v/v DMSO. Test compounds were serially diluted at 10×assay concentrations in 10% DMSO-containing buffer in 96-well polypropylene plates. […] Positive controls were reaction mixtures containing no test compound; negative controls (blanks) were reaction mixtures containing 0.7 μM to 2 μM dexamethasone. […] IC50 values were determined by iterative non-linear curve fitting of the FP signal data to a 4-parameter logistic equation.
B. Glucocorticoid Receptor Cell Assays
1. Induction of Aromatase in Fibroblasts (Cell Assay for Transactivation)
Dexamethasone, a synthetic ligand to the glucocorticoid receptor (GR), induces expression of aromatase in human foreskin fibroblast cells. The activity of aromatase is measured by the conversion of testosterone to estradiol in culture media.
On the day of the experiment, the media in the wells is replaced with fresh media. Cells are treated with test compounds to final concentrations of 10^−5 M to 10 ^−8 M, and testosterone to a final concentration of 300 ng/mL. Each well has a total volume of 100 μL. Samples are made in duplicates. Control wells include: (a) wells that receive testosterone only, and (b) wells that receive testosterone plus 2 μM of dexamethasone to provide maximum induction of aromatase. Plates are incubated at 37° C. overnight (15 to 18 hours), and supernatants are harvested at the end of incubation. […] The amount of estradiol is inversely proportional to the ELISA signals in each well. The extent of aromatase induction by test compounds is expressed as a relative percentage to dexamethasone. EC50 values of test compounds are derived by non-linear curve fitting.
2. Inhibition of IL-6 Production in Fibroblasts (Cell Assay for Transrepression)
Human foreskin fibroblast cells produce IL-6 in response to stimulation by pro-inflammatory cytokine IL-1.
On the next day, media in the wells is replaced with fresh media. Cells are treated with IL-1 (rhIL-1α, R&D Systems Cat. No. 200-LA) to a final concentration of 1 ng/mL, and with test compounds to final concentrations of 10 ^−5 M to 10 ^−8 M, in a total volume of 200 μL per well. Samples are done in duplicates. […] Positive control wells receive IL-1 only and represent maximum (or 100%) amount of IL-6 production. Plates are incubated at 37° C. overnight (15 to 18 hours), and supernatants are harvested at the end of incubation. IL-6 levels in the supernatants are determined by the ELISA kits for IL-6 (MedSystems Diagnostics GmbH, Vienna, Austria, Cat. No. BMS213TEN) according to manufacture's instructions. The extent of inhibition of IL-6 by test compounds is expressed in percentage relative to positive controls. IC50 values of test compounds are derived by non-linear curve fitting.
Evaluation of agonist or antagonist activity of compounds binding to the glucocorticoid receptor may be determined by any of the assays.
3. Modulation of Tyrosine Aminotransferase (TAT) Induction in Rat Hepatoma Cells
Testing of compounds for agonist or antagonist activity in induction of tyrosine aminotransferase (TAT) in rat hepatoma cells.
H4-II-E-C3 cells were incubated overnight in 96 well plates (20,000 cells/100 μL/well) in MEM medium containing 10% heat inactivated FBS and 1% nonessential amino acids. On the next day, cells were stimulated with the indicated concentrations of dexamethasone or test compound (dissolved in DMSO, final DMSO concentration 0.2%) for 18 hours. Control cells were treated with 0.2% DMSO.

SMILES	activity as agonists of the glucocorticoid receptor function
Cc1ccc(C(C)(C)CC(O)(Cc2ccc(C#N)cc2Cl)C(F)(F)F)cc1 (centres unmarked) [3-Chloro-4-(2-hydroxy-4-methyl-4-p-tolyl-2-trifluoromethylpentyl)benzonitrile]	activity as agonists
CC(C)(CC(O)(Cc1ccc(C#N)cc1Cl)C(F)(F)F)c1ccccc1 (centres unmarked) [3-Chloro-4-(2-hydroxy-4-methyl-4-phenyl-2-trifluoromethylpentyl)benzonitrile]	activity as agonists
Cc1cccc(C(C)(C)CC(O)(Cc2ccc(C#N)cc2Cl)C2CC2)c1 (centres unmarked) [3-Chloro-4-[2-cyclopropyl-2-hydroxy-4-methyl-4-(3-methylphenyl)pentyl]benzonitrile]	activity as agonists
CC(C)(CC(O)(Cc1ccc(C#N)cc1Cl)C1CC1)c1cccc2c1OCC2 (centres unmarked) [3-Chloro-4-[2-cyclopropyl-4-(2,3-dihydrobenzofuran-7-yl)-2-hydroxy-4-methylpentyl]benzonitrile]	activity as agonists
COc1c(C(C)(C)CC(O)(Cc2ccc(C#N)cc2Cl)C(F)(F)F)ccc2ccccc12 (centres unmarked) [3-Chloro-4-[2-hydroxy-4-(1-methoxynaphthalen-2-yl)-4-methyl-2-trifluoromethylpentyl]benzonitrile]	activity as agonists
COc1cccc(C(C)(C)CC(O)(Cc2ccc(C#N)cc2Cl)C(F)(F)F)c1 (centres unmarked) [3-Chloro-4-[2-hydroxy-4-(3-methoxyphenyl)-4-methyl-2-trifluoromethylpentyl]benzonitrile]	activity as agonists
CC(C)(CC(O)(Cc1ccc(C#N)cc1Cl)C(F)(F)F)c1ccccc1C(F)(F)F (centres unmarked) [3-Chloro-4-[2-hydroxy-4-methyl-2-trifluoromethyl-4-(2-trifluoromethylphenyl)pentyl]benzonitrile]	activity as agonists
CC(C)(CC(O)(Cc1ccc(C#N)cc1Cl)C(F)(F)F)c1cccc(C(F)(F)F)c1 (centres unmarked) [3-Chloro-4-[2-hydroxy-4-methyl-2-trifluoromethyl-4-(3-trifluoromethylphenyl)pentyl]benzonitrile]	activity as agonists
CC(C)(CC(O)(Cc1ccc(C#N)cc1Cl)C(F)(F)F)c1ccc(C(F)(F)F)cc1 (centres unmarked) [3-Chloro-4-[2-hydroxy-4-methyl-2-trifluoromethyl-4-(4-trifluoromethylphenyl)pentyl]benzonitrile]	activity as agonists
Cc1cc2c(c(C(C)(C)CC(O)(Cc3ccc(C#N)cc3Cl)C(F)(F)F)c1)OCC2 (centres unmarked) [3-Chloro-4-[2-hydroxy-4-methyl-4-(5-methyl-2,3-dihydrobenzofuran-7-yl)-2-trifluoromethylpentyl]benzonitrile]	activity as agonists
CC(C)(CC(O)(Cc1ccc(C#N)cc1Cl)C(F)(F)F)c1ccc2c(c1)CCO2 (centres unmarked) [3-Chloro-4-[4-(2,3-dihydrobenzofuran-5-yl)-2-hydroxy-4-methyl-2-trifluoromethylpentyl]benzonitrile]	activity as agonists
CC(C)(CC(O)(Cc1ccc(C#N)cc1Cl)C(F)(F)F)c1cc(O)cc(O)c1 (centres unmarked) [3-Chloro-4-[4-(3,5-dihydroxyphenyl)-2-hydroxy-4-methyl-2-trifluoromethylpentyl]benzonitrile]	activity as agonists
COc1cc(OC)cc(C(C)(C)CC(O)(Cc2ccc(C#N)cc2Cl)C(F)(F)F)c1 (centres unmarked) [3-Chloro-4-[4-(3,5-dimethoxyphenyl)-2-hydroxy-4-methyl-2-trifluoromethylpentyl]benzonitrile]	activity as agonists
CCc1cccc(C(C)(C)CC(O)(Cc2ccc(C#N)cc2Cl)C(F)(F)F)c1O (centres unmarked) [3-Chloro-4-[4-(3-ethyl-2-hydroxyphenyl)-2-hydroxy-4-methyl-2-trifluoromethylpentyl]benzonitrile]	activity as agonists
CC(C)(CC(O)(Cc1ccc(C#N)cc1Cl)C(F)(F)F)c1cccc(F)c1 (centres unmarked) [3-Chloro-4-[4-(3-fluorophenyl)-2-hydroxy-4-methyl-2-trifluoromethylpentyl]benzonitrile]	activity as agonists
CC(C)(CC(O)(Cc1ccc(C#N)cc1Cl)C(F)(F)F)c1ccc(F)cc1O (centres unmarked) [3-Chloro-4-[4-(4-fluoro-2-hydroxyphenyl)-2-hydroxy-4-methyl-2-trifluoromethylpentyl]benzonitrile]	activity as agonists
COc1cc(F)ccc1C(C)(C)CC(O)(Cc1ccc(C#N)cc1Cl)C(F)(F)F (centres unmarked) [3-Chloro-4-[4-(4-fluoro-2-methoxyphenyl)-2-hydroxy-4-methyl-2-trifluoromethylpentyl]benzonitrile]	activity as agonists
CC(C)(CC(O)(Cc1ccc(C#N)cc1Cl)C(F)(F)F)c1ccc(F)cc1 (centres unmarked) [3-Chloro-4-[4-(4-fluorophenyl)-2-hydroxy-4-methyl-2-trifluoromethylpentyl]benzonitrile]	activity as agonists
CC(C)(CC(O)(Cc1ccc(C#N)cc1Cl)C(F)(F)F)c1cc(F)cc2c1OCC2 (centres unmarked) [3-Chloro-4-[4-(5-fluoro-2,3-dihydrobenzofuran-7-yl)-2-hydroxy-4-methyl-2-trifluoromethylpentyl]benzonitrile]	activity as agonists
CC(C)(CC(O)(Cc1ccc(C#N)cc1Cl)C(F)(F)F)c1cc(F)ccc1O (centres unmarked) [3-Chloro-4-[4-(5-fluoro-2-hydroxyphenyl)-2-hydroxy-4-methyl-2-trifluoromethylpentyl]benzonitrile]	activity as agonists
COc1ccc(F)cc1C(C)(C)CC(O)(Cc1ccc(/C=N/O)cc1Cl)C(F)(F)F (centres unmarked) [3-Chloro-4-[4-(5-fluoro-2-methoxyphenyl)-2-hydroxy-4-methyl-2-trifluoromethylpentyl]benzaldehyde oxime]	activity as agonists
COc1ccc(F)cc1C(C)(C)CC(O)(Cc1ccc(C=O)cc1Cl)C(F)(F)F (centres unmarked) [3-Chloro-4-[4-(5-fluoro-2-methoxyphenyl)-2-hydroxy-4-methyl-2-trifluoromethylpentyl]benzaldehyde]	activity as agonists
Cc1ccc(F)cc1C(C)(C)CC(O)(Cc1ccc(C#N)cc1Cl)C(F)(F)F (centres unmarked) [3-Chloro-4-[4-(5-fluoro-2-methylphenyl)-2-hydroxy-4-methyl-2-trifluoromethylpentyl]benzonitrile]	activity as agonists
N#Cc1ccc(CC(O)(CC2(c3cc(F)ccc3Cl)CCC2)C(F)(F)F)c(Cl)c1 (centres unmarked) [3-Chloro-4-{2-[1-(2-chloro-5-fluorophenyl)cyclobutylmethyl]-3,3,3-trifluoro-2-hydroxypropyl}benzonitrile]	activity as agonists
N#Cc1ccc(CC(O)(CC2(c3cc(F)ccc3O)CC2)C(F)(F)F)c(Cl)c1 (centres unmarked) [3-Chloro-4-{3,3,3-trifluoro-2-[1-(5-fluoro-2-hydroxyphenyl)cyclopropylmethyl]-2-hydroxypropyl}benzonitrile]	activity as agonists
COc1ccc(F)cc1C1(CC(O)(Cc2ccc(C#N)cc2Cl)C(F)(F)F)CC1 (centres unmarked) [3-Chloro-4-{3,3,3-trifluoro-2-[1-(5-fluoro-2-methoxyphenyl)cyclopropylmethyl]-hydroxypropyl}benzonitrile]	activity as agonists

From US7268152B2, “Glucocorticoid mimetics, methods of making them, pharmaceutical compositions, and uses thereof” (Boehringer Ingelheim Pharmaceuticals, Inc., priority 2002, dated 2007)
